Measurements taken from US20240127967A1.
Values joined by “and” are separate entries in the source; they are usually repeats but may differ in a detail not shown here. Equal entries are not always repeated. “Also recorded” adds a separate entry of the source. Where two headings read alike, the source gives them in different places.

Tests used:
[1] = system: EBOV/Mak; settings: cited from earlier work
[2] = system: EBOV; settings: read-out: IC50 (HepG2); cited from earlier work
[3] = system: EBOV; settings: mouse, in vivo; cited from earlier work
[4] = in vivo, cited from earlier work
[5] = Solubility in ten test vehicles; settings: for solubility in Vehicle #9: 3% NMP/45% PEG300/12% ethanol/40% sterile water; for solubility in Vehicle #9 / solubility in Vehicle #7 / solubility in Vehicle #6 / solubility in Vehicle #10 / solubility in Vehicle #8 / solubility in Vehicle #5 / solubility in Vehicle #4 / solubility in Vehicle #3: Bepridil 25, Sertraline 3, toremifene 8.4 mg/ml; for solubility in Vehicle #7: 5% NMP/95% PEG 300; for solubility in Vehicle #6: 10% Solutol/90% PEG 400; for solubility in Vehicle #2: 20% Captisol in water; for solubility in Vehicle #2 / solubility in Vehicle #1: Bepridil 25 mg/ml, Sertraline 3 mg/ml, toremifene 8.4 mg/ml; for solubility in Vehicle #10: 40% Propylene Glycol/30% Solutol HS 15/30% Sterile Water; for solubility in Vehicle #8: 80% PEG 400/20% of 0.1% Tween-20 in Water; for solubility in Vehicle #1: Aqueous Suspension Vehicle; for solubility in Vehicle #5: PEG 400; for solubility in Vehicle #4: Vegetable Oil; for solubility in Vehicle #3: […] PEG 400/[…] Tween 20/25% Capmul MCM NF
[6] = system: Ebola virus
[7] = system: MARV; settings: mouse, in vivo; cited from earlier work
[8] = system: EBOV/Mak; experiment: microbe, parasite or virus in culture; assay type: cell-based, Ebola virus; settings: for IC50: Zaire ebolavirus
[9] = Pharmacokinetic modeling of human oral PK data (Monolix); parameters: species or system humans; settings: for V: fitted PK model parameter (volume of plasma/serum compartment); for k: fitted elimination rate
[10] = female, C57BL/6, mouse, in vivo; for Cmax: po
[11] = system: VSV-EBOV-GPΔ-Luc; assay type: cell-based, VSV pseudovirus bearing EBOV GP
[12] = in vivo; settings: mouse, ip, 12 mg/kg
[13] = State of V8 preparations after storage at 4° C.; assay type: physicochemical; settings: stored at 4° C.
[14] = Tolerability of drugs in V8 in mice; settings: in V8, once daily PO, eleven consecutive days; bepridil 500, toremifene 200, sertraline 60 and 100 mg/kg
[15] = system: SARS-CoV-2
[16] = system: EBOV; parameters: species or system mice; settings: mouse, in vivo
[17] = system: EBOV/Mak-005; settings: rhesus monkey, in vivo; cited from earlier work
[18] = Huh-7, read-out: IC50 (average)

| Structure (SMILES) | IC50 ([1]; read-out: IC50 (Huh7)) [µM] | IC50 [2] [µM] | Survival (%) [3] | peak concentration [4] | trough concentration [4] | solubility in Vehicle #9 [5] | solubility in Vehicle #7 [5] | solubility in Vehicle #6 [5] | solubility in Vehicle #2 [5] | solubility in Vehicle #10 [5] | solubility in Vehicle #8 [5] | solubility in Vehicle #1 [5] | solubility in Vehicle #5 [5] | solubility in Vehicle #4 [5] | solubility in Vehicle #3 [5] | V [9] | Hill coefficient [1] | Cmax [10] [µM] | state of preparation in Vehicle 8 when removed from the refrigerator [13] | tolerability in mice [14] | other results |
| --- | --- | --- | --- | --- | --- | --- | --- | --- | --- | --- | --- | --- | --- | --- | --- | --- | --- | --- | --- | --- | --- |
| CC(=O)c1ccc2c(c1)N(CCCN1CCC(CCO)CC1)c1ccccc1S2 [piperacetazine, Piperacetazine] | 7.58 | 3.3 | – | – | – | – | – | – | – | – | – | – | – | – | – | – | – | – | – | – | – |
| CC(C)COCC(CN(Cc1ccccc1)c1ccccc1)N1CCCC1 (stereo not shown) [Bepridil] | 5.86 | 3.21 | 100% and 100 ^3% | 3.63 (±1.48) μM | 2.60 (±1.21) μM | Clear solution | Clear solution | Clear solution | Slightly hazy | Clear solution | Clear solution | Suspension | Clear solution | Clear solution | Clear solution | 25.2 | 4.859 | ~3 | always solid (as if it had frozen) and contained precipitate | well tolerated | single drug effect [6]: exceeds 80%; Survival (%) [7]: 90 ^4%; possible loss of potency on storage in V8 [8]: < 2 fold; IC50 ([8]; Huh-7): 4.5 µM; IC50 [8, 18]: 4.53 µM; Tk0 ([9]; fitted PK model parameter): 0.0873 days; k12 ([9]; fitted PK model parameter): 6.71 per day; k21 ([9]; fitted PK model parameter): 1.61 per day; k [9]: 0.348 per day; IC50 ([1]; read-out: IC50): 5.86 µM; Cmax obtained relative to prediction, fold higher [10]: ~1.8 fold; stability of inhibitory activity of stock in V8 [11]: maintained inhibitory activity over 15 days; Cmax [12]: 3.3 µM |
| CCC(CC)COC(=O)[C@H](C)N[P@](=O)(OC[C@H]1O[C@@](C#N)(c2ccc3c(N)ncnn23)[C@H](O)[C@@H]1O)Oc1ccccc1 [remdesivir] | – | – | – | 5.34 (±0.03) μM | – | – | – | – | – | – | – | – | – | – | – | – | – | – | – | – | median t1/2 [4]: ≈ 1 hour; time of peak concentration [4]: 1.03 (±0.01) hour; baseline efficacy [15]: 60% |
| O=C1CCc2ccc(OCCCCN3CCN(c4cccc(Cl)c4Cl)CC3)cc2N1 [Aripiprazole] | – | – | 10 ^1% | – | – | – | – | – | – | – | – | – | – | – | – | – | – | – | – | – | adverse effect in treated infected mice [3]: ^1 Mice became extremely somnolent, thwarting eating and drinking, which likely contributed to low survival. |
| CN(C)CCOc1ccc(/C(=C(/CCCl)c2ccccc2)c2ccccc2)cc1 [Toremifene] | 3.64 | 0.03 | 50% and 50 ^ % | 1.18 (±0.42) μM | 0.29 µM | Clear solution | Clear solution | Suspension | Clear solution | Insoluble | Clear solution | Suspension | Suspension | Non- | Suspension | 354 | 3.057 | ~4.4 | no precipitates, not solid | well tolerated | IC50 [8, 18]: 1.83 µM; k12 ([9]; fitted PK model parameter): 4.28 per day; k21 ([9]; fitted PK model parameter): 0.992 per day; ka ([9]; fitted absorption rate): 16.6 per day; k [9]: 0.000198 per day; IC50 ([1]; read-out: IC50): 3.64 µM; Cmax obtained relative to prediction, fold lower [10]: ~1.4 fold; stability of inhibitory activity of stock in V8 [11]: began to lose activity after about 1 week; approximated protection of infected mice [16]: ~50%; reasoned survival [16]: ~7%; estimated survival ([16]; po, 200 mg/kg): ~50% |
| CN[C@H]1CC[C@@H](c2ccc(Cl)c(Cl)c2)c2ccccc21 [Sertraline] | – | – | 70% and 70 ^ % | – | – | Clear solution | Clear solution | Clear solution | Clear solution | Clear solution | Clear solution | Suspension | Clear solution | Clear solution | Clear solution | 909 | 1.628 | ~1.2 | no precipitates, not solid | well tolerated | Tlag ([9]; fitted PK model parameter): 0.0976 days; Cmax obtained relative to prediction, fold higher [10]: ~1.2 fold; efficacy in macaques [17]: not effective; also recorded: did not protect |
| CC[C@H]1OC(=O)[C@H](C)[C@@H](O[C@H]2C[C@@](C)(OC)[C@@H](O)[C@H](C)O2)[C@H](C)[C@@H](O[C@@H]2O[C@H](C)C[C@H](N(C)C)[C@H]2O)[C@](C)(O)C[C@@H](C)CN(C)[C@H](C)[C@@H](O)[C@]1(C)O [Azithromycin] | 10.8 | – | 10, 30, 60 ^2% | – | – | – | – | – | – | – | – | – | – | – | – | – | – | – | – | – | – |
| Cc1cccc(/C=N/Nc2cc(N3CCOCC3)nc(OCCc3ccccn3)n2)c1 [Apilimod] | 0.17 | – | – | – | – | – | – | – | – | – | – | – | – | – | – | – | – | – | – | – | Cmax ([4]; human, po): 0.26 µM |
| CCOC(=O)c1c(CSc2ccccc2)n(C)c2cc(Br)c(O)c(CN(C)C)c12 [arbidol] | – | – | – | 0.77 (±0.23) μM | 0.32 (±0.09) μM | – | – | – | – | – | – | – | – | – | – | – | – | – | – | – | baseline efficacy [15]: 36% |
| O=C(Nc1ncc([N+](=O)[O-])s1)c1ccccc1O [tizoxanide] | – | – | – | 17.34 (±13.61) | 3.02 (±7.43) | – | – | – | – | – | – | – | – | – | – | – | – | – | – | – | – |
